US8148392B2, “2-indolyl imidazo [4,5-d] phenanthroline derivatives and their use in the treatment of cancer” (Lorus Therapeutics Inc., priority 2005, dated 2012)
Where two headings read alike, the source gives them in different places.

Columns and labels:
[1] = Solubility in water; assay type: physicochemical; details: HCl salt of compound 2
Procedure: A solution of 0.200 g of compound 2 (0.483 mmol) in DMF was treated with HCL(g) until no more precipitation was observed. The solid was then filtered, washed with dichloromethane and hexanes, dried in vacuum.

[2] = system: human colon carcinoma HT-29 cells; test: XTT cell proliferation assay, HT-29; assay type: cell-based; details: Homo sapiens, HT-29, XTT, read-out: IC50
Method in brief: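 HT-29 cells in McCoy's 5A with 10% FBS, 37° C., 5% CO2, exposed to varying compound concentrations for 6-7 days. Viable cells quantified by XTT reduction to formazan; growth inhibition expressed as IC50 (μM).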

[3] = system: panel of 60 human cancer cell lines; test: NCI DTP in vitro anticancer screen, panel of 60 human cancer cell lines; assay type: cell-based; details: average over human tumour cell lines of the NCI panel (FIG. 1); read-out: average GI50 (growth inhibition by 50%)
Procedure: For example, the following methodology, which is currently employed by the NCI, can be used to assess the GI50 of a candidate compound of Formula I in the selected cancer cell lines. Briefly, cell suspensions are diluted (5000-40,000 cells per well) and 100 μL of the diluted cell suspension is added into 96-well microtiter plates. Inoculates are allowed a preincubation period of 24 h at 37° C. for stabilization. Dilutions at twice the intended test concentration of the candidate compound are added at time zero in 100 μL aliquots to the microtiter plate wells. Test compounds are generally evaluated at five 10-fold dilutions. In routine testing, the highest well concentration is usually 10E-4 M, but this may be adjusted depending on the compound being tested. The cells are incubated with the test compound for 48 h in 5% CO2 atmosphere and 100% humidity. The cells are then assayed by using the sulforhodamine B assay (see, for example, Skehan, P., et al. (1990) JNCI, J. Natl. Cancer Inst. 82, 1107-1112; and Chen, S. F., et al. (1990) Proc. Am. Assoc. Cancer Res. 31, A2644) employing a plate reader which can be used to read the optical densities.
Compounds 2 and 3 were evaluated for their antiproliferative effects in a panel of 60 human cancer cell lines as part of the in vitro anticancer screening services provided by the DTP (Developmental Therapeutics Program) of the US National Cancer Institute (NCI).
Analysis of the effects of compounds of Formula I on in vitro and in vivo cell growth inhibition were performed utilizing the methods as described in the preceding Examples. As shown in Example 12, cell growth inhibition by the parental compound 3 was screened by National Cancer Institute 60-cell line assay and leukemia, non-small cell cancer, colon cancer, renal cancer and prostate cancer panels were especially sensitive to compound 3.

- solubility in water [1]: soluble in water
- IC50 ([2]; 6-7 days, Table 3): 700 nM
- IC50 ([2]; as Example 13, Table 7): 1.5 µg/mL
Compound: Brc1ccc2[nH]cc(-c3nc4c5cccnc5c5ncccc5c4[nH]3)c2c1 [Compound 2]
- GI50 [3]: < 2000 nM
